According to paper PMC8043168, “Tribolium castaneum defensin 1 kills Moraxella catarrhalisin an in vitro infection model but does not harm commensal bacteria” (Virulence, 2021):
Bridge positions count the residues as written; N and C are the ends.

Tests used:
M. catarrhalis = assay type: cell-based, Moraxella catarrhalis
Experimental: Colonies of M. catarrhalis were grown on sheep blood agar plates for 12 h at 37°C and 5% CO2 before transfer to brain heart infusion (BHI) medium (Carl Roth, Karlsruhe, Germany) at an initial concentration of 1.6 × 10^7 cells/ml (OD600 = 0.08) as determined using an Ultraspec 10 cell densitometer (Amersham BioSciences, Little Chalfont, UK). Bacteria were cultivated in a shaking incubator at 37°C until the concentration reached 1.2 × 10^8 cells/ml (OD600 = 0.6) and then diluted to 2 × 10^6 cells/ml (OD600 = 0.011). To establish the optimal concentration ranges for AMP activity, defensin 1 was prepared as a two-fold dilution series from 12.5 µM to 1.56 µM and was added to the bacterial cultures, which were incubated as above for a further 16 h. Untreated cultures were used as controls. The OD600 was measured automatically at 30-min intervals using an Infinite M200 Pro plate reader (Tecan Life Sciences, Männedorf, Switzerland). […] They were cultivated for a further 15 h at 37°C and 5% CO2 in serial dilution before manual counting of the colonies on each plate.
Table S1. Detailed characterization of tested AMPs. M.c. were grown to an Optical Density (OD) 600nm of 0.6 in Brain Heart Infusion (BHI) Medium.
Upon dilution to OD600nm= 0.01, M.c. were incubated with declining amounts of indicated AMPs (25 μM to 0.048 μM at halving intervals) at 37°C with 5% CO2.
OD600nm was measured at 30 min intervals to establish the minimal inhibitory concentration (MIC). pI = isoelectric point, MW = molecular weight in kiloDalton.
MIC AMP name AMP class Organism Amino Acid Sequence pIMWPurity Retention time [min] modification
0.195 µM Cecropin A α-helical Hyalophora cecropia […] 10.75 4.00 91.06 7.30 n-term. amidation
0.39 µM Sarcotoxin IA α-helical Sarcophaga peregrina […] 11.07 4.16 91.37 9.37 n-term. amidation
~ 25µM Stomoxyn α-helical Stomoxys calcitrans […] 11.26 4.40 95.34 10.08 n-term. amidation
~ 25µM Spinigerin linear Pseudacanthotermes spiniger […] 11.07 3.00 96.23 12.45 none
>25µM Apidaecin Ia proline-rich Apis mellifera GNNRPVYIPQPRPPHPRI 11.71 2.11 92.98 16.91 none
>25µM Drosocin proline-rich Drosophila melanogaster GKPRPYSPRPTSHPRPIRV 12.01 2.20 92.86 11.65 none
>25µM Pyrrhocoricin proline-rich Pyrrhocoris apterus […] 10.27 2.34 93.17 11.38 none
>25 µM Metalnikowin-1 proline-rich Palomena prasina […] 9.98 1.84 92.85 13.36 none
>25 µM Metalnikowin-2A proline-rich Palomena prasina […] 9.98 1.84 92.39 10.85 none
>25 µM Metchnikowin-1 proline-rich Drosophila melanogaster […] 10.74 3.03 99.06 11.50 none
>25 µM Metchnikowin-2 proline-rich Drolophila melanogaster […] 11.54 3.04 97.16 11.46 none
12.5 µM Defensin 1 disulfide stabilized Tribolium castaneum […] 9.7 4.83 90.53 18.41 none
~ 25 µM Cecropin-like α-helical Lucilia sericata[…] 10.35 6.66 90.28 12.01 none
0.195 µM Cecropin α-helical Galleria mellonella […] 10.21 4.21 93.61 12.33 n-term. amidation
0.37 µM Cecropin α-helical Lucilia sericata […] 10.56 4.26 94.31 10.83 n-term. amidation
12.5 µM Stomoxyn α-helical Lucilia sericata […] 10.73 4.38 90.37 13.35n-term. amidation n-term.
1.56 µM Cecropin(Sarcotoxin) α-helical Eristalis tenax […] 10.56 4.14 90.80 9.76 none

BDMs activated by LPS = assay: Sterile activation of BDMs by LPS; assay type: cell-based, human; details: defensin 1 added 1 h after LPS
Experimental: The presence of cytokines in the BDM supernatant after infection and treatment with 12.5 µM defensin 1 was assessed using the MAGPIX Multiplex ELISA (Luminex, Austin, TX, USA). BDM supernatants were prepared as recommended for the MAGPIX system. The cytokine panel comprised MIP1-α, MCP1, IL-1β, IL-6, IL-8, IL-10, IL-12p70, IL-23, LAP and TNF-α.
Statistical interpretation of the multiplex ELISA data required the incorporation of data points outside the detection range and adjustments for the effect of parallel technical measurements from the same biological samples. We therefore used the Hodges and Lehmann nonparametric aligned ranks test to compare cytokine secretion by treatment time within treatment groups and between the following control and treatment groups: […]

E. faecalis = assay: Growth kinetics of commensal E. faecalis; assay type: cell-based, Enterococcus faecalis; details: liquid BHI medium, 37°C, OD600 every 30 min; defensin 1 12.5 µM, sarcotoxin 1 C 0.39 µM
Experimental: For the analysis of commensal bacteria, E. faecalis was grown on Columbia agar plates or in liquid BHI medium, and E. coli was grown on McConkey agar or in liquid LB medium. After overnight culture on agar plates at 37°C and 5% CO2, both species were transferred to liquid medium at an initial OD600 of 0.005. The cultures were maintained in a shaking incubator at 37°C, and the OD600 was measured automatically at 30-min intervals as above.

[1] = system: commensal species (E. faecalis and E. coli); details: previous study; cited from earlier work
Text: We furthermore tested the effect of defensin 1 and sarcotoxin 1 C on the commensals E. faecalis and E. coli. Selectivity of AMPs may provide an important therapeutic advantage over broad-spectrum antibiotics because AMPs targeting pathogens but not commensals would avoid the common side effects of antibiotic therapy. […] Sarcotoxin 1 C was previously shown to inhibit 90% of clinical multidrug-resistant isolates of Ent ...

H-VTCDLLSAEAKGVKVNHAACAAHCLLKRKRGGYCNKRRICVCRN-OH (disulfide 3-34, 20-40, 24-42 (inferred)) [Defensin 1]
MIC (minimal inhibitory concentration) (M. catarrhalis; 12 h): 12.5 µM | concentration that completely abolished/inhibited the growth of M. catarrhalis (M. catarrhalis; growth curve in BHI, two-fold dilution series, 37°C, 16 h, OD600 every 30 min): 12.5 µM | sterile activation of BDMs by LPS in presence of peptide (BDMs activated by LPS): not significantly affected | effect on growth of E. faecalis (E. faecalis): minor growth delay | effect against commensal species (E. faecalis, E. coli) [1]: no effect
